Residues, ends and D or L forms follow the SMILES beside them.
Each molecule was assayed on E. coli O157:H7. Conditions: screening-stage peptides tested at 1, 6, 12 and 25 μg/mL.
Assay type: cell-based, Escherichia coli
Excerpt: In the present invention we used the statistical thermodynamics algorithm TANGO to identify aggregation prone regions (APR) in the proteome of E. coli strain O157:H7. This yielded 3535 sequences of at least 6 amino acids in length and a TANGO score of at least 20%. In order to generate efficient aggregation seeds, we employed a previously devised tandem repeat design ^19, 21, in which the APRs are repeated once and separated by a linker. Given the length limitation on solid phase peptide synthesis with regard to yield and purity, we focused on the 1542 APRs with a length of 7 amino acids. In order to maximize the potential of these peptides to induce aggregation in E. coli, we ranked the APRs by their frequency of occurrence throughout the E. coli proteome, allowing a single amino acid mismatch, and selected the first 75 most frequently occurring sequences from this list (Table 4). In the design pattern, and in order to increase the colloidal stability of these aggregating peptides, the APRs are flanked by aggregation gatekeepers, a class of residues that was previously shown to reduce aggregation kinetics^22-24. […] To generate the tandem we used a single proline residue as a linker between the gatekeeper-flanked APRs. In addition to the 75 peptides generated in this fashion, we added 2 variants of each of the first 25 peptides in the list by randomly mutating one residue in the first APR repeat to arginine to further modulate the aggregation propensity of the peptides (Table 4). All the peptides were generated using solid phase synthesis at 200 nmole scale and dissolved in DMSO to a theoretical stock concentration of 2 mM (assuming 100% synthesis efficiency). Peptide activity on the growth of E. coli O157:H7 was measured at dilutions of the peptide corresponding to concentrations of 1, 6, 12 and 25 μg/mL. […] The Matthews Correlations Coefficient (MCC) with the measured activity was 0.1 at 12 μg/mL and 0.24 at 25 μg/mL.

Structure (SMILES)	E. coli O157 (apparent MIC in screen) [µg/mL]
CC(C)C[C@H](NC(=O)[C@H](C)NC(=O)[C@H](CCCNC(=N)N)NC(=O)[C@@H]1CCCN1C(=O)[C@H](CCCNC(=N)N)NC(=O)[C@H](CCCNC(=N)N)NC(=O)[C@H](CC(C)C)NC(=O)[C@H](CC(C)C)NC(=O)[C@H](C)NC(=O)[C@@H](NC(=O)[C@H](C)NC(=O)[C@H](CC(C)C)NC(=O)[C@H](C)NC(=O)[C@@H](N)CCCNC(=N)N)C(C)C)C(=O)N[C@@H](C)C(=O)N[C@H](C(=O)N[C@@H](C)C(=O)N[C@@H](CC(C)C)C(=O)N[C@@H](CC(C)C)C(=O)N[C@@H](CCCNC(=N)N)C(=O)N[C@@H](CCCNC(=N)N)C(=O)O)C(C)C [Peptide P12] (H-RALAVALLRRPRALAVALLRR-OH; N-terminus and C-terminus assumed)	25
CC(C)C[C@H](NC(=O)CNC(=O)[C@@H](NC(=O)[C@H](Cc1ccccc1)NC(=O)[C@H](CC(C)C)NC(=O)[C@H](CCCNC(=N)N)NC(=O)[C@@H]1CCCN1C(=O)[C@H](CCCNC(=N)N)NC(=O)[C@H](CCCNC(=N)N)NC(=O)[C@H](CC(C)C)NC(=O)[C@H](C)NC(=O)[C@H](CC(C)C)NC(=O)CNC(=O)[C@@H](NC(=O)[C@H](Cc1ccccc1)NC(=O)[C@H](CC(C)C)NC(=O)[C@@H](N)CCCNC(=N)N)C(C)C)C(C)C)C(=O)N[C@@H](C)C(=O)N[C@@H](CC(C)C)C(=O)N[C@@H](CCCNC(=N)N)C(=O)N[C@@H](CCCNC(=N)N)C(=O)O [Peptide P26] (H-RLFVGLALRRPRLFVGLALRR-OH; N-terminus and C-terminus assumed)	25
CC(C)C[C@H](NC(=O)[C@H](CC(N)=O)NC(=O)[C@H](CC(C)C)NC(=O)[C@H](CC(C)C)NC(=O)[C@@H](NC(=O)[C@H](CC(C)C)NC(=O)[C@H](CC(C)C)NC(=O)[C@H](CCCNC(=N)N)NC(=O)[C@@H]1CCCN1C(=O)[C@H](CCCNC(=N)N)NC(=O)[C@H](CCCNC(=N)N)NC(=O)[C@H](CC(C)C)NC(=O)[C@H](CC(N)=O)NC(=O)[C@H](CC(C)C)NC(=O)[C@H](CC(C)C)NC(=O)[C@@H](NC(=O)[C@H](CC(C)C)NC(=O)[C@H](CC(C)C)NC(=O)[C@@H](N)CCCNC(=N)N)[C@@H](C)O)[C@@H](C)O)C(=O)N[C@@H](CCCNC(=N)N)C(=O)N[C@@H](CCCNC(=N)N)C(=O)O [Peptide P49] (H-RLLTLLNLRRPRLLTLLNLRR-OH; N-terminus and C-terminus assumed)	12
CC(C)C[C@H](NC(=O)[C@H](C)NC(=O)[C@H](CC(C)C)NC(=O)[C@H](CC(C)C)NC(=O)[C@H](CC(C)C)NC(=O)[C@H](CCCNC(=N)N)NC(=O)[C@@H]1CCCN1C(=O)[C@H](CCCNC(=N)N)NC(=O)[C@H](CCCNC(=N)N)NC(=O)[C@H](CO)NC(=O)[C@H](CCCNC(=N)N)NC(=O)[C@H](CC(C)C)NC(=O)[C@H](C)NC(=O)[C@H](CC(C)C)NC(=O)[C@H](CC(C)C)NC(=O)[C@H](CC(C)C)NC(=O)[C@@H](N)CCCNC(=N)N)C(=O)N[C@@H](CC(C)C)C(=O)N[C@@H](CO)C(=O)N[C@@H](CCCNC(=N)N)C(=O)N[C@@H](CCCNC(=N)N)C(=O)O [Peptide P103] (H-RLLLALRSRRPRLLLALLSRR-OH; N-terminus and C-terminus assumed)	25
CC(C)C[C@H](NC(=O)[C@H](C)NC(=O)[C@H](CC(C)C)NC(=O)[C@@H](NC(=O)[C@@H](NC(=O)[C@H](C)NC(=O)[C@H](CCCNC(=N)N)NC(=O)[C@@H]1CCCN1C(=O)[C@H](CCCNC(=N)N)NC(=O)[C@H](CCCNC(=N)N)NC(=O)[C@H](CC(C)C)NC(=O)[C@H](CC(C)C)NC(=O)[C@H](C)NC(=O)[C@H](CC(C)C)NC(=O)[C@@H](NC(=O)[C@@H](NC(=O)[C@H](C)NC(=O)[C@@H](N)CCCNC(=N)N)[C@@H](C)O)C(C)C)[C@@H](C)O)C(C)C)C(=O)N[C@@H](CC(C)C)C(=O)N[C@@H](CCCNC(=N)N)C(=O)N[C@@H](CCCNC(=N)N)C(=O)O [Peptide P29] (H-RATVLALLRRPRATVLALLRR-OH; N-terminus and C-terminus assumed)	25
CC(C)C[C@H](NC(=O)[C@H](CCC(N)=O)NC(=O)[C@H](CCCNC(=N)N)NC(=O)[C@@H]1CCCN1C(=O)[C@H](CCCNC(=N)N)NC(=O)[C@H](CCCNC(=N)N)NC(=O)[C@H](CC(C)C)NC(=O)[C@H](CC(C)C)NC(=O)[C@@H](NC(=O)[C@H](CC(C)C)NC(=O)[C@H](CC(C)C)NC(=O)[C@H](CC(C)C)NC(=O)[C@H](CCC(N)=O)NC(=O)[C@@H](N)CCCNC(=N)N)[C@@H](C)O)C(=O)N[C@@H](CC(C)C)C(=O)N[C@@H](CC(C)C)C(=O)N[C@H](C(=O)N[C@@H](CC(C)C)C(=O)N[C@@H](CC(C)C)C(=O)N[C@@H](CCCNC(=N)N)C(=O)N[C@@H](CCCNC(=N)N)C(=O)O)[C@@H](C)O [Peptide P72] (H-RQLLLTLLRRPRQLLLTLLRR-OH; N-terminus and C-terminus assumed)	25
CC[C@H](C)[C@H](NC(=O)CNC(=O)[C@H](CC(C)C)NC(=O)[C@H](CCCNC(=N)N)NC(=O)[C@@H]1CCCN1C(=O)[C@H](CCCNC(=N)N)NC(=O)[C@H](CCCNC(=N)N)NC(=O)[C@H](CC(C)C)NC(=O)[C@H](C)NC(=O)[C@@H](NC(=O)[C@H](C)NC(=O)[C@@H](NC(=O)CNC(=O)[C@H](CC(C)C)NC(=O)[C@@H](N)CCCNC(=N)N)[C@@H](C)CC)C(C)C)C(=O)N[C@@H](C)C(=O)N[C@H](C(=O)N[C@@H](C)C(=O)N[C@@H](CC(C)C)C(=O)N[C@@H](CCCNC(=N)N)C(=O)N[C@@H](CCCNC(=N)N)C(=O)O)C(C)C [Peptide P33] (H-RLGIAVALRRPRLGIAVALRR-OH; N-terminus and C-terminus assumed)	25
CC(C)C[C@H](NC(=O)[C@H](C)NC(=O)[C@H](CC(C)C)NC(=O)[C@H](CCCNC(=N)N)NC(=O)[C@@H]1CCCN1C(=O)[C@H](CCCNC(=N)N)NC(=O)[C@H](CCCNC(=N)N)NC(=O)[C@H](CC(C)C)NC(=O)[C@H](CC(C)C)NC(=O)[C@H](CC(C)C)NC(=O)[C@H](C)NC(=O)[C@H](CC(C)C)NC(=O)[C@H](C)NC(=O)[C@H](CC(C)C)NC(=O)[C@@H](N)CCCNC(=N)N)C(=O)N[C@@H](C)C(=O)N[C@@H](CC(C)C)C(=O)N[C@@H](CC(C)C)C(=O)N[C@@H](CC(C)C)C(=O)N[C@@H](CCCNC(=N)N)C(=O)N[C@@H](CCCNC(=N)N)C(=O)O [Peptide P4] (H-RLALALLLRRPRLALALLLRR-OH; N-terminus and C-terminus assumed)	6
CC[C@H](C)[C@H](NC(=O)[C@H](CC(C)C)NC(=O)[C@H](CC(C)C)NC(=O)[C@H](C)NC(=O)[C@H](CCCNC(=N)N)NC(=O)[C@@H]1CCCN1C(=O)[C@H](CCCNC(=N)N)NC(=O)[C@H](CCCNC(=N)N)NC(=O)[C@H](CC(C)C)NC(=O)[C@H](CC(C)C)NC(=O)[C@@H](NC(=O)[C@@H](NC(=O)[C@H](CC(C)C)NC(=O)[C@H](CC(C)C)NC(=O)[C@H](C)NC(=O)[C@@H](N)CCCNC(=N)N)[C@@H](C)CC)[C@@H](C)O)C(=O)N[C@H](C(=O)N[C@@H](CC(C)C)C(=O)N[C@@H](CC(C)C)C(=O)N[C@@H](CCCNC(=N)N)C(=O)N[C@@H](CCCNC(=N)N)C(=O)O)[C@@H](C)O [Peptide P23] (H-RALLITLLRRPRALLITLLRR-OH; N-terminus and C-terminus assumed)	25

— patent publication US11872262B2, “Means and methods for treating bacterial infections” (VIB VZW, priority 2017, dated 2024)
